These results are taken from patent US10125137B2, “Benzofurans substituted with bicyclic secondary benzamide as HCV inhibitors” (BRISTOL-MYERS SQUIBB COMPANY, priority 2015, dated 2018).

For data set [1], the system named is genotype 1b (Con-1) HCV replicon. The experiment in a line: HCV Replicon Luciferase Assay. In kind it is cell-based. The following applies: Hepatitis C virus, 72 h, genotype 1b HCV replicon, Huh-7, Renilla luciferase, 3 days. The protocol: Cell Lines. The cell lines used to evaluate compounds consist of a human hepatocyte derived cell line (Huh-7) that constitutively expresses a genotype 1b (Con-1) HCV replicon or a genotype 1b (Con-1) HCV replicon with an asparagine replacing the cysteine at amino acid 316, or a genotype 2a (JFH-1) replicon, containing a Renilla luciferase reporter gene. These cells were maintained in Dulbecco's modified Eagle medium (DMEM) containing 10% FBS, 100 U/mL penicillin/streptomycin and 1.0 mg/mL G418.
HCV Replicon Luciferase Assay. To evaluate compound efficacy, titrated compounds were transferred to sterile 384-well tissue culture treated plates, and the plates were seeded with HCV replicon cells (50 μL at a density of 2.4×10^3 cells/well) in DMEM containing 4% FBS (final DMSO concentration at 0.5%). After 3 days incubation at 37° C., cells were analyzed for Renilla Luciferase activity using the EnduRen substrate (Promega cat #E6485) according to the manufacturer's directions. Briefly, the EnduRen substrate was diluted in DMEM and then added to the plates to a final concentration of 7.5 μM. The plates were incubated for at least 1 h at 37° C. then read on a Viewlux Imager (PerkinElmer) using a luminescence program. The 50% effective concentration (EC50) was calculated using the four-parameter logistic formula noted above.

The subject of another data set is HCV. The settings on record: single agent: transient decrease then rebound; cited from earlier work.
For data set [2] the following is noted: extended dosing of combination regimens with interferon and ribavirin; cited from earlier work.

Structures are written as SMILES. Read-outs that look alike come from different tables or passages of the source.

A word on the EC50: it is the concentration needed to bring the measured effect to its halfway point. For `CNC(=O)c1c(-c2ccc(F)cc2)oc2cc(N(CCF)S(C)(=O)=O)c(-c3cccc(C(=O)N4CCn5cc(C(F)(F)F)nc5C4)c3)cc12` [Compound 1001], the EC50 is under 0.1 µM in data set [1] (read-out: EC50 1b (class)) and 0.0349 µM in data set [1] (read-out: EC50 (uM) 1b).
Consider `CNC(=O)c1c(-c2ccc(F)cc2)oc2cc(N(CCF)S(C)(=O)=O)c(-c3cccc(C(=O)N4CCn5c(nnc5C(F)(F)F)C4)c3)cc12` [Compound 1002], for which the EC50 in data set [1] (read-out: EC50 1b (class)) was in the range of 0.1 to 1 µM.
Turning to `CNC(=O)c1c(-c2ccc(F)cc2)oc2cc(N(CCF)S(C)(=O)=O)c(-c3cccc(C(=O)N4CCc5nc[nH]c5C4)c3)cc12` [Compound 1003], the EC50 in data set [1] (read-out: EC50 1b (class)) was over 1 µM.
Take `CNC(=O)c1c(-c2ccc(F)cc2)oc2cc(N(CCF)S(C)(=O)=O)c(-c3cccc(C(=O)N4CCc5[nH]ncc5C4)c3)cc12` [Compound 1004]: the EC50 in data set [1] (read-out: EC50 1b (class)) was 0.1 to 1 µM; in data set [1] (read-out: EC50 (uM) 1b) it was 0.975 µM.
`CNC(=O)c1c(-c2ccc(F)cc2)oc2cc(N(CCF)S(C)(=O)=O)c(-c3cccc(C(=O)N4CCn5cccc5C4c4cccnc4)c3)cc12` (stereo not drawn) [Compound 1005]: the EC50 in data set [1] (read-out: EC50 1b (class)) is under 0.1 µM.
In the case of `CNC(=O)c1c(-c2ccc(F)cc2)oc2cc(N(CCF)S(C)(=O)=O)c(-c3cccc(C(=O)N4CCC5CC54)c3)cc12` (stereo not drawn) [Compound 1006], the EC50 in data set [1] (read-out: EC50 1b (class)) is under 0.1 µM.
Same read-out and setting: for `CNC(=O)c1c(-c2ccc(F)cc2)oc2cc(N(CCF)S(C)(=O)=O)c(-c3cccc(C(=O)N4[C@H](C(N)=O)C[C@@H]5C[C@@H]54)c3)cc12` [Compound 1007] the value was over 1 µM.
With `CNC(=O)c1c(-c2ccc(F)cc2)oc2cc(N(CCF)S(C)(=O)=O)c(-c3cccc(C(=O)N4CCC5(CCN(C(=O)OC(C)(C)C)C5)C4)c3)cc12` (stereo not drawn) [Compound 1008], the figures for the EC50 in data set [1] (read-out: EC50 1b (class)) and in data set [1] (read-out: EC50 (uM) 1b) were under 0.1 µM and 0.0964 µM, respectively.
With `CNC(=O)c1c(-c2ccc(F)cc2)oc2cc(N(CCF)S(C)(=O)=O)c(-c3cccc(C(=O)N4CC5CCN(C(=O)OC(C)(C)C)C5C4)c3)cc12` (stereo not drawn) [Compound 1009], the EC50 in data set [1] (read-out: EC50 1b (class)) lay in the range of 0.1 to 1 µM.
For the compound `CNC(=O)c1c(-c2ccc(F)cc2)oc2cc(N(CCF)S(C)(=O)=O)c(-c3cccc(C(=O)N4CC5CCN(C(=O)OC(C)(C)C)CC5C4)c3)cc12` (stereo not drawn) [Compound 1010], the EC50 in data set [1] (read-out: EC50 1b (class)) was under 0.1 µM.
As for `CNC(=O)c1c(-c2ccc(F)cc2)oc2cc(N(CCO)S(C)(=O)=O)c(C3CC3)cc12` [HCV-796], the “HCV RNA levels in patients” value in the data set on HCV is “reduce HCV RNA levels”. The hepatic toxicity result in data set [2] was “hepatic toxicity”.
